Test results published in patent US9889117B2, “Method for treating and/or delaying the degeneration of Purkinje cells” (EVERFRONT BIOTECH INC., priority 2014, dated 2018).

What was measured:
[1] = tested on: GFP-ATXN3 protein (Ataxin3Q84); assay: In vitro cell test: GFP-ATXN3 fluorescence in transfected cells; type: cell-based, human; conditions: 5 μg/ml, 24 hours; HEK 293T or neural stem cells transfected with pEGFP-C1-Ataxin3Q84; FIG. 1
Description: In this experiment, the effects of BP and ligustilide on the protein expression level of SCA3 protein were analyzed. First, pEGFP-C1-Ataxin3Q84 plasmid (i.e., a plasmid comprising Ataxin gene with abnormal CAG repeat number (84Q)) containing green fluorescent protein or pEGFP-C1-Ataxin3Q28 plasmid (i.e., a plasmid comprising Ataxin gene with normal CAG repeat number (28Q)) (Addgene company, U.S.) was transfected into human embryonic kidney (HEK) cells 293T (Bioresource Collection and Research Center, Taiwan) or neural stem cells (NSC). The cells were then cultured in a DMEM medium (Dulbecco's modified Eagle's medium, Thermo) containing 10% fetal bovine serum (Gibco), and incubated in an incubator with 5% CO2 at 37° C. Then, the cells were treated with 5 μg/ml BP (A10353, purchased from Alfa Aesar, U.S.; with a purity of 95%) or ligustilide (5393-015M1, purchased from Pharmaron, China) for 24 hours. The protein aggregation of GFP-ATXN3 protein in the cells of each group was observed by a fluorescence microscopy. Wild type cells and cells transfected with green fluorescent protein (GFP) were used as the control group.

zebrafish = assay: Zebrafish safe dose test (survival rate); type: in vivo; conditions: for survival rate of the zebrafishes: after 48 hours, 28.5° C., FIG. 2
Description: In this experiment, the zebrafishes that were used as the animal models in the experimental group were Tg (HuC:GFP), which is characterized by its primary sensory neurons (Rohon-Beard cells) that can produce fluorescence. The zebrafishes used in the control group were wild type zebrafishes. All of the zebrafishes were provided by TZCAS (Taiwan Zebrafish Core Facility at Academia Sinica, Taiwan) and TZCF (Taiwan Zebrafish Core Facility, Taiwan). First, the toxicity of BP to zebrafish was tested by injecting different dose of BP to zebrafishes. The zebrafishes were then kept at 28.5° C. After 48 hours, the survival rate of the zebrafishes was observed.
The survival rate of the zebrafishes treated with 500 mg/kg BP was 50%, and both of the survival rates of the zebrafishes treated with 250 mg/kg and 50 mg/kg BP were greater than 75%.

[2] = tested on: zebrafishes injected with ATXN3 MO; assay: Zebrafish behavioral test (tail stimulation); type: in vivo; conditions: FIG. 3
Description: Morpholinos (MO) was produced by modifying the structure of a fragment of DNA, which can block protein translation process of mRNA to inhibit the expression of a target protein. The ATXN3 MO used in this experiment has a sequence of 5′-[…]-3′ (SEQ ID NO. 1), and the standard used in the control group is 5′-[…]-3′ (SEQ ID NO. 2) (hereinafter referred to as “Ct MO”). Before injection, the MO was dissolved in ddH2O, stored at −20° C. for used. Zebrafish eggs were micro-injected within about one hour after birth. After 21 to 48 hours post fertilization (hpf), the zebrafish eggs were micro-injected with ATXN3 MO or ATXN3 MO in combination with 250 mg/kg BP, 125 mg/kg BP or 62.5 mg/kg BP. After 48 hours, the fish tails were stimulated by tips, and the number of stimulation causing movement of the fish tails was measured.

[3] = tested on: motor neurons of zebrafishes treated with ATXN3 MO; assay: Zebrafish confocal microscopy test of motor neurons; type: in vivo; conditions: 250 mg/kg BP with ATXN3 MO, after 48 hours; FIG. 4
Description: Zebrafish eggs were micro-injected with 300 nM/μl ATXN3 MO, 250 mg/kgBP, or ATXN3 MO in combination with 250 mg/kgBP, 125 mg/kg BP or 62.5 mg/kgBP. After 48 hours, the zebrafishes were enclosed in glass slides. The motor neurons in the living body were recorded by a confocal fluorescence microscopy.
The data shown in FIG. 4 was obtained by 100%*(the number of the survived zebrafishes/total number of the zebrafishes).

[4] = tested on: MJD84.2 transgenic mice (SCA3 mice); assay: Local motor test in SCA3 mice; type: in vivo; conditions: BP 100 or 500 mg/kg/bid, ligustilide 100 mg/kg/bid; for total moving distance vs untreated group and group fed with olive oil: FIG. 5A; for moving times (moving number) vs untreated group and group fed with olive oil: FIG. 5B; for moving time vs untreated group and group fed with olive oil: FIG. 5C
Description: (§1) MJD84.2 transgenic mice (i.e., the mice being transfected with ATXN3 gene with human 84 CAG repeat sequence, hereinafter referred to as “SCA3 mice”) were used in this experiment. MJD84.2 transgenic mice were an animal model used for studying spinal cerebellar atrophy.
(§2) The MJD84.2 transgenic mice of two weeks of age were randomly divided into five groups, each group had six mice. The mice were treated with the following conditions for two weeks: (1) untreated group; (2) treated with olive oil (i.e., only treated with the adjuvant); (3) treated with 100 mg/kg/bid (bis in die) of BP; (4) treated with 500 mg/kg/bid of BP; (5) treated with 100 mg/kg/bid of ligustilide. The wild type mice (WT) was used as a control group. After 2 weeks, local motor and rotarod test were conducted.
Local motor test was performed to test the exercise ability of mice. 10-week-old mice were tested on rotarod once every three weeks. Then, the mice were placed in a transparent acrylic box 2 hours and were free to move. A behavioral test was conducted for 1 hour by using VersaMax 420 (AccuscanInstrumentsInc, USA), and the data was analyzed by statistical methods.

[5] = tested on: MJD84.2 transgenic mice (SCA3 mice); assay: Rotarod test in SCA3 mice; type: in vivo; conditions: BP 100 or 500 mg/kg/bid, ligustilide 100 mg/kg/bid, 4 to 40 rpm within 300 seconds, FIG. 6
Description: as §1, §2
Rotarod test was performed to test the balance and grip ability of mice. The mice were given practice two weeks before the first behavioral test. The experiment was conducted using an IITC rotarod (IITC Life Science Inc, USA).
10-week-old mice were tested on a rotarod once every three weeks. The test condition was set as a linear acceleration from 4 to 40 rpm within 300 seconds. The time (sec) that the mice fell from the rotarod (i.e., latency to fall) was recorded. […] After the rotarod test, the body weight of the mice were recorded. […]

Purkinje cells = assay: Immunohistochemistry staining of cerebellar slices; type: in vivo; conditions: cerebellum slices of SCA3 mice; BP 100 or 500 mg/kg/bid, ligustilide 100 mg/kg/bid; sacrificed at 20 and 24 weeks; FIG. 7
Description: (§3) The MJD84.2 transgenic mice (i.e., the mice with modified ATXN3 gene) of eight weeks of age were randomly divided into five groups, with six mice in each group. The mice were treated with the following conditions: (1) untreated group; (2) treated with olive oil; (3) treated with 100 mg/kg/bid of BP; (4) treated with 500 mg/kg/bid of BP; (5) treated with 100 mg/kg/bid of ligustilide. Then, the mice were sacrificed at the age of 20 weeks and 24 weeks. Cerebellar slices staining and tissue protein extraction were performed (see Example 5). Whole brain tissue of the mice was fixed overnight with 3.7% formalin and embedded in paraffin. The samples were sectioned (4 μm) by using a Quanto kit (Thermo, USA) and mounted on a microscope slide.

calbindin = assay: Western blotting of cerebellum proteins, anti-calbindin antibody; type: in vivo; conditions: cerebellum tissue of SCA3 mice; BP 100 or 500 mg/kg/bid, ligustilide 100 mg/kg/bid; FIG. 8
Description: as §3
(§4) The cerebellums of the mice sacrificed in example 4 were separated from the whole brain, and the proteins in the cerebellums were extracted. The purified proteins were analyzed by Western blotting assay using an anti-ubiquitin antibody and an anti-calbindin antibody, respectively, to determine the changes in the protein expression level of ubiquitin and calbindin in the cerebellum tissue of SCA3 mice in each group. β-actin was used as an internal control group.
It has been known that calbindin is a marker of Purkinje cells.

ubiquitin = assay: Western blotting of cerebellum proteins, anti-ubiquitin antibody; type: in vivo; conditions: cerebellum tissue of SCA3 mice treated with BP; FIG. 9
Description: as §3
as §4, with “control group. […]” for “control group.”

SMILES | fluorescent signal of Ataxin3Q84 in the cells vs untreated groups [1] | survival rate of the zebrafishes (zebrafish; 50 mg/kg BP injected) | survival rate of the zebrafishes (zebrafish; 250 mg/kg BP injected) | survival rate of the zebrafishes (zebrafish; 500 mg/kg BP injected) [%] | safe dose for zebrafish (zebrafish; from survival rate after 48 hours) | amount of stimulation causing the movement of fish tails ([2]; ATXN3 MO in combination with 250, 125 or 62.5 mg/kg BP, after 48 hours, vs ATXN3 MO alone) | restoring of behavioral ability of the diseased zebrafishes, comparison of doses ([2]; BP of 250 mg/kg, compared with 125 and 62.5 mg/kg) | number of motor neurons [3] | total moving distance vs untreated group and group fed with olive oil [4] | moving times (moving number) vs untreated group and group fed with olive oil [4] | moving time vs untreated group and group fed with olive oil [4] | balance and grip ability (rotarod, latency to fall) vs untreated group and group fed with olive oil [5] | number of the Purkinje cells vs untreated group and group fed with olive oil (Purkinje cells) | protein expression level of calbindin vs untreated group and group fed with olive oil (calbindin) | content of the ubiquitination proteins vs untreated group and group fed with olive oil (ubiquitin)
CCCC=C1OC(=O)c2ccccc21 [BP, n-butylidenephthalide] | significantly lower | greater than 75% | greater than 75% | 50 | lower than 250 mg/kg | restored (i.e., decreased) | the most obvious effect | can maintain the number of motor neurons | higher | higher | higher | better | significantly higher | significantly higher | significantly higher
CCC/C=C1\OC(=O)C2=C1CCC=C2 [ligustilide, 3-butylidene-4,5-dihydrophthalide] | significantly lower |  |  |  |  |  |  |  | higher | higher | higher | better | significantly higher | significantly higher | 
